Patent US20110177179A1, “PREPARATION OF BOTANICAL EXTRACTS CONTAINING ABSORBABLE COMPONENTS USING PHARMACEUTICAL PLATFORM TECHNOLOGY” (SINOVEDA CANADA, INC., priority 2010, published 2011)
Where two headings read alike, the source gives them in different places.

What was measured:
colonic bacteria = assay: Metabolism by colonic (intestinal) bacteria, anaerobic incubation with fecal sample; type: in vitro ADME, rat; settings: for metabolism by colonic bacteria (change in level): Red clover methanolic extract, anaerobic, 37° C., up to 24 hours
Protocol: The effect of colonic bacteria on the stability of a methanolic extract of Red clover was evaluated. The procedures reported by Schneider et al. (Schneider, Simmering et al. 2000) was used to prepare a fecal sample collected from a rat. The extract was incubated anaerobically at 37° C. for a period of 24 hours.

[1] = Hollman, van Trijp et al. 1997; cited from earlier work
MDCK cells = assay: Permeability of extract components through MDCK cell monolayer; type: in vitro ADME; settings: for permeability versus molecular weight trend: Rhodiola 80% methanol extract
Protocol: Both CaCo-2 and MDCK cells were purchased form American Type Culture Collection (ATCC) and cultured with Dulbecco Modified Eagle's Media (DMEM) supplemented with 10% fetal bovine serum, 1% non-essential amino acids, and 10 mM HEPES. All tissue culture media and supplements were purchased from Sigma-Aldrich. Following Yee's method (Yee 1997), CaCo-2 cells were seeded into transwell culture dishes and cultured for 21 days. Lin et al's. (2003) method was used to seed and culture MDCK cells; the culturing period was three days.
(§1) Two natural products: Rhodiola rosea and Red yeast rice were individually extracted using the three solvents described in Example 1. Each extract was dissolved in Hanks' balanced salt buffer supplemented with 20 mM HEPES at 1 mg/ml. Permeability studies were carried out using MDCK cells and samples were taken from the apical side at 0 minute and 60 minutes and from the basal side at 60 minutes after incubation. Samples were diluted with a 1:1 mixture of methanol and acetonitrile prior to analysis using a LC/MS system. Permeability coefficient number was calculated as follows: Peff (cm/sec)=(Vr/(A*Cs))*(Cf/t), where Vr is the receiver side volume (basal; ml), A is the area of monolayer (cm^2), Cs is the starting concentration at the donor side (μM), Cf is the concentration at the receiver side at time t (μM), and t is the incubation time (seconds).
as §1, with “The extracts of” for “Two natural products: Rhodiola rosea and”, “clover” for “yeast rice”, “individually” for “individually extracted using the three solvents described in Example 1. Each extract was”, “(cm/sec)=(Vr/(A*C,))*(Cf/t),” for “(cm/sec)=(Vr/(A*Cs))*(Cf/t),”

[2] = major component of Chuanxiong; Yan, Ko et al. 2008; cited from earlier work
[3] = after 6 hours of incubation with colonic bacteria
[4] = Rhodiola rosea extracts, 1 mg/ml, 60 minutes, p<0.05

Molecule: Oc1ccc([C@H]2COc3cc(O)ccc3C2)cc1 [Equol]
- metabolism by colonic bacteria (change in level) (colonic bacteria): appeared shortly after incubation
- species left in the incubate (colonic bacteria; [3]): major species left

Molecule: C[C@@H]1O[C@@H](OC[C@H]2O[C@@H](Oc3c(-c4ccc(O)c(O)c4)oc4cc(O)cc(O)c4c3=O)[C@H](O)[C@@H](O)[C@@H]2O)[C@H](O)[C@H](O)[C@H]1O [Rutin]
- detection in the blood stream [1]: not detected

Molecule: COc1ccc(-c2coc3cc(O)ccc3c2=O)cc1 [formononetin]
- metabolism by colonic bacteria (change in level) (colonic bacteria): increase
- species left in the incubate (colonic bacteria; [3]): major species left

Molecule: COc1ccc(-c2coc3cc(O)cc(O)c3c2=O)cc1 [biochanin A]
- species left in the incubate (colonic bacteria): major species left

Molecule: hydroxyrosavin
- permeability, 80% methanol extract as opposed to water extract (MDCK cells; MDCK): significantly different

Molecule: O[C@@H]1[C@@H](O)[C@H](OC/C=C/c2ccccc2)O[C@H](CO[C@@H]2OC[C@H](O)[C@H](O)[C@H]2O)[C@H]1O [rosavin]
- permeability versus molecular weight trend (MDCK cells; 1 mg/ml, 60 minutes): deviated significantly from the trend
- permeability, 80% methanol extract as opposed to water extract (MDCK cells; [4]): significantly different

Molecule: OC[C@@H]1O[C@@H](OC[C@H]2O[C@@H](OC/C=C/c3ccccc3)[C@H](O)[C@@H](O)[C@@H]2O)[C@H](O)[C@H]1O [rosarin]
- permeability versus molecular weight trend (MDCK cells; 1 mg/ml, 60 minutes): deviated significantly from the trend
- permeability, 80% methanol extract as opposed to water extract (MDCK cells; [4]): significantly different

Molecule: CC[C@H](C)C(=O)O[C@H]1C[C@@H](C)C=C2C=C[C@H](C)[C@H](CC[C@@H]3C[C@@H](O)CC(=O)O3)[C@H]21 [monacolin K]
- permeability, comparison of water, 80% methanol and hexane extracts (MDCK cells; Red yeast rice extracts, 1 mg/ml, 60 minutes): highest in the hexane extract

Molecule: CCC/C=C1\OC(=O)C2=C1CCC=C2 [z-ligustilide]
- bioavailability [2]: less than 3%
